Test results taken from patent US11078184B2, “Dexrabeprazole sodium compound and pharmaceutical composition thereof” (JIANGSU AOSAIKANG PHARMACEUTICAL CO., LTD., priority 2017, dated 2021).

How the values were obtained:
[1] = Determination of hygroscopic moisture; format: physicochemical; conditions: 25° C. thermostatic drier over saturated ammonium chloride solution, sodium salt
Description: Determination of hygroscopic moisture: 25±+1° C. Thermostatic Drier (with a saturated solution of ammonium chloride being placed at bottom of the drier).

[2] = High temperature / grinding test, change of crystal form by XRPD; format: physicochemical; conditions: sodium salt; for Stability of the crystal form at a high temperature: XRPD
From the text: Crystal forms A and C of dexrabeprazole sodium were placed under different conditions as listed in Table 5 below, and sampled for XRPD detection to investigate the change of crystal forms.

[3] = Test of influence factors (stability: appearance and relevant materials by HPLC); format: physicochemical
Description: Chromatographic conditions of relevant materials: Chromatographic column: charged with octadecylsilane bonded silica as a filler (Agilent ZORBAX Extend C18, 250×4.6 mm, […]); Mobile phase A: 0.025 mol/L of phosphate solution (the pH of 0.025 mol/L of dipotassium phosphate solution was adjusted to 7.2 with phosphoric acid)-acetonitrile (95:5); Mobile phase B: methanol; Mobile phase C: acetonitrile; A linear gradient elution is carried out in accordance with the following table. Detection wavelength: 280 nm, 220 nm (for impurity H) Flowrate: 1.0 ml/min Column temperature: 25° C. Sample size: 5 μl Diluent: the pH of 0.1 mol/L of dipotassium phosphate solution was adjusted to 11.3 with 2 mol/L potassium hydroxide solution-methanol (45:55). Crystal forms A, B, and C (each 100 mg) were placed under different conditions, and sampled at Days 0, 10, 20, and 30 for detecting their characters and relevant materials, respectively.

[4] = Tap density, bulk density, compression coefficient and Hausner ratio; format: physicochemical; conditions: sodium salt
Description: The compression coefficient and the Hausner ratio closely related thereto are simple and fast methods for predicting the powder property, and are often used as the index for characterizing the powder flowability. Crystal forms A and B were sampled for measuring the tap density and bulk density of powder of different crystal forms, and then the compression coefficient and the Hausner ratio were calculated. Wherein, the compression coefficient (%)=[(the tap density−the bulk density)/the tap density×100%; and the Hausner ratio=the tap density/the bulk density.

[5] = Determination of angle of repose (powder flowability); format: physicochemical; conditions: average of three determinations; sodium salt
Description: Determination of angle of repose: BT-1001 Intelligent Powder Characteristic Tester (Dandong Bettersize Instrument Co., Ltd.)
Angle of repose is a key characteristic of the frictional resistance between powder particles, and is an important parameter for characterizing the powder flowability. The angle of repose is determined by measuring the height and the base radius of a cone formed by powders, with a calculation equation as follows: tan(α)=height/radius. The angle of reposes of crystal forms A and B were measured and compared for their difference, respectively.

[6] = Test of suspension equilibrium (XRPD); conditions: suspension in acetonitrile
Description: XRPD test (FIGS. 10 & 12-14, Modern Analysis Center, Nanjing University): Instrument model: Thermo Co., Ltd., X'TRA Type X Diffractometer, target: Cu (40 kV, 40 mA), scanning range: 2°-40° (2θvalue), scanning step length: 0.02, scanning speed: 5
The mixture was stirred, together with 10 ml of a solvent at 35° C. and under nitrogen atmosphere, and then sampled for XRPD detection.

[7] = High humidity, RH75 ± 5%, Day 0
[8] = High humidity, RH75 ± 5%, Day 0, sodium salt
[9] = High humidity, RH75 ± 5%, Day 10, sodium salt
[10] = High humidity, RH75 ± 5%, Day 20, sodium salt
[11] = High humidity, RH75 ± 5%, Day 30, sodium salt
[12] = High temperature, 40° C., Day 0
[13] = High temperature, 40° C., Day 0, sodium salt
[14] = High temperature, 40° C., Day 10
[15] = High temperature, 40° C., Day 10, sodium salt
[16] = High temperature, 40° C., Day 20
[17] = High temperature, 40° C., Day 20, sodium salt
[18] = High temperature, 40° C., Day 30
[19] = High temperature, 40° C., Day 30, sodium salt
[20] = Light exposure, 4500 ± 500 Lx, Day 0
[21] = Light exposure, 4500 ± 500 Lx, Day 0, sodium salt
[22] = Light exposure, 4500 ± 500 Lx, Day 10
[23] = Light exposure, 4500 ± 500 Lx, Day 10, sodium salt
[24] = Light exposure, 4500 ± 500 Lx, Day 20
[25] = Light exposure, 4500 ± 500 Lx, Day 20, sodium salt
[26] = Light exposure, 4500 ± 500 Lx, Day 30
[27] = Light exposure, 4500 ± 500 Lx, Day 30, sodium salt

COCCCOc1ccnc(C[S@@+]([O-])c2nc3ccccc3[n-]2)c1C.[Na+] [Amorphous form, R-(+)-2-{[4-(3-methoxypropoxy)-3-methylpyrid-2-yl]methylsulfinyl}-1H-benzimidazole sodium salt, reference compound]
Hygroscopic moisture (%) ([1]; 0 h): 6.60%
Hygroscopic moisture (%) ([1]; 24 h): 21.60%
Hygroscopic moisture (%) ([1]; 48 h): 21.81%

COCCCOc1ccnc(C[S@@+]([O-])c2nc3ccccc3[n-]2)c1C.[Na+] [Crystal form A, R-(+)-2-{[4-(3-methoxypropoxy)-3-methylpyrid-2-yl]methylsulfinyl}-1H-benzimidazole sodium salt, reference compound]
Comparison of XRPD fit charts (change of crystal form) ([2]; grinded in a mortar for 5 min): partially converted to an amorphous form
Stability of the crystal form at a high temperature [2]: unstable at a high temperature
Appearance character [3, 7]: Off-white
Relevant materials: Maximum individual impurity (%) [3, 8]: 0.037%
Relevant materials: Total impurity (%) [3, 8]: 0.098%
Appearance character ([3]; High humidity, RH75 ± 5%, Day 10): Yellow
Relevant materials: Maximum individual impurity (%) [3, 9]: 0.029%
Relevant materials: Total impurity (%) [3, 9]: 0.152%
Appearance character ([3]; High humidity, RH75 ± 5%, Day 20): Yellow
Relevant materials: Maximum individual impurity (%) [3, 10]: 0.200%
Relevant materials: Total impurity (%) [3, 10]: 0.483%
Appearance character ([3]; High humidity, RH75 ± 5%, Day 30): Yellow
Relevant materials: Maximum individual impurity (%) [3, 11]: 0.287%
Relevant materials: Total impurity (%) [3, 11]: 1.495%
Appearance character [3, 12]: Off-white
Relevant materials: Maximum individual impurity (%) [3, 13]: 0.037%
Relevant materials: Total impurity (%) [3, 13]: 0.098%
Appearance character [3, 14]: Off-white
Relevant materials: Maximum individual impurity (%) [3, 15]: 0.037%
Relevant materials: Total impurity (%) [3, 15]: 0.100%
Appearance character [3, 16]: Off-white
Relevant materials: Maximum individual impurity (%) [3, 17]: 0.021%
Relevant materials: Total impurity (%) [3, 17]: 0.145%
Appearance character [3, 18]: Off-white
Relevant materials: Maximum individual impurity (%) [3, 19]: 0.019%
Relevant materials: Total impurity (%) [3, 19]: 0.210%
Appearance character [3, 20]: Off-white
Relevant materials: Maximum individual impurity (%) [3, 21]: 0.037%
Relevant materials: Total impurity (%) [3, 21]: 0.098%
Appearance character [3, 22]: Off-white
Relevant materials: Maximum individual impurity (%) [3, 23]: 0.077%
Relevant materials: Total impurity (%) [3, 23]: 0.133%
Appearance character [3, 24]: Off-white
Relevant materials: Maximum individual impurity (%) [3, 25]: 0.099%
Relevant materials: Total impurity (%) [3, 25]: 0.298%
Appearance character [3, 26]: Off-white
Relevant materials: Maximum individual impurity (%) [3, 27]: 0.123%
Relevant materials: Total impurity (%) [3, 27]: 0.396%
Bulk density [4]: 0.267 g · cm^−3
Tap density [4]: 0.450 g · cm^−3
Determination of angle of repose, Average [5]: Average: 58.89°
Hygroscopic moisture (%) ([1]; 0 h): 4.66%
Hygroscopic moisture (%) ([1]; 24 h): 5.10%
Hygroscopic moisture (%) ([1]; 48 h): 5.72%

COCCCOc1ccnc(C[S@@+]([O-])c2nc3ccccc3[n-]2)c1C.[Na+] [Crystal form B, R-(+)-2-{[4-(3-methoxypropoxy)-3-methylpyrid-2-yl]methylsulfinyl}-1H-benzimidazole sodium salt]
Appearance character [3, 7]: Off-white
Relevant materials: Maximum individual impurity (%) [3, 8]: 0.029%
Relevant materials: Total impurity (%) [3, 8]: 0.088%
Appearance character [3, 9]: Yellow
Relevant materials: Maximum individual impurity (%) [3, 9]: 0.017%
Relevant materials: Total impurity (%) [3, 9]: 0.141%
Appearance character [3, 10]: Yellow
Relevant materials: Maximum individual impurity (%) [3, 10]: 0.189%
Relevant materials: Total impurity (%) [3, 10]: 0.426%
Appearance character [3, 11]: Yellow
Relevant materials: Maximum individual impurity (%) [3, 11]: 0.280%
Relevant materials: Total impurity (%) [3, 11]: 1.300%
Appearance character [3, 12]: Off-white
Relevant materials: Maximum individual impurity (%) [3, 13]: 0.029%
Relevant materials: Total impurity (%) [3, 13]: 0.088%
Appearance character [3, 14]: Off-white
Relevant materials: Maximum individual impurity (%) [3, 15]: 0.028%
Relevant materials: Total impurity (%) [3, 15]: 0.090%
Appearance character [3, 16]: Off-white
Relevant materials: Maximum individual impurity (%) [3, 17]: 0.015%
Relevant materials: Total impurity (%) [3, 17]: 0.126%
Appearance character [3, 18]: Off-white
Relevant materials: Maximum individual impurity (%) [3, 19]: 0.012%
Relevant materials: Total impurity (%) [3, 19]: 0.190%
Appearance character [3, 20]: Off-white
Relevant materials: Maximum individual impurity (%) [3, 21]: 0.029%
Relevant materials: Total impurity (%) [3, 21]: 0.088%
Appearance character [3, 22]: Off-white
Relevant materials: Maximum individual impurity (%) [3, 23]: 0.059%
Relevant materials: Total impurity (%) [3, 23]: 0.120%
Appearance character [3, 24]: Off-white
Relevant materials: Maximum individual impurity (%) [3, 25]: 0.155%
Relevant materials: Total impurity (%) [3, 25]: 0.263%
Appearance character [3, 26]: Off-white
Relevant materials: Maximum individual impurity (%) [3, 27]: 0.100%
Relevant materials: Total impurity (%) [3, 27]: 0.360%
Stability compared with crystal form A ([3]; light exposure, high temperature, and high humidity): comparable to that of crystal form A
Compression coefficient ([4]; (tap density − bulk density)/tap density × 100%): 22.72%
Bulk density [4]: 0.398 g · cm^−3
Tap density [4]: 0.515 g · cm^−3
Hausner ratio ([4]; tap density/bulk density): 1.29
Determination of angle of repose, Average [5]: Average: 36.35°
Hygroscopic moisture (%) ([1]; 0 h): 4.72%
Hygroscopic moisture (%) ([1]; 24 h): 5.18%
Hygroscopic moisture (%) ([1]; 48 h): 5.75%

COCCCOc1ccnc(C[S@@+]([O-])c2nc3ccccc3[n-]2)c1C.[Na+] [Crystal form C, R-(+)-2-{[4-(3-methoxypropoxy)-3-methylpyrid-2-yl]methylsulfinyl}-1H-benzimidazole sodium salt]
Stability of the crystal form at a high temperature [2]: keeps stable at a high temperature without crystal transformation
Appearance character [3, 7]: Off-white
Relevant materials: Maximum individual impurity (%) [3, 8]: 0.032%
Relevant materials: Total impurity (%) [3, 8]: 0.085%
Appearance character [3, 9]: Off-white
Relevant materials: Maximum individual impurity (%) [3, 9]: 0.027%
Relevant materials: Total impurity (%) [3, 9]: 0.094%
Appearance character [3, 10]: Off-white
Relevant materials: Maximum individual impurity (%) [3, 10]: 0.015%
Relevant materials: Total impurity (%) [3, 10]: 0.166%
Appearance character [3, 11]: Off-white
Relevant materials: Maximum individual impurity (%) [3, 11]: 0.292%
Relevant materials: Total impurity (%) [3, 11]: 0.491%
Appearance character [3, 12]: Off-white
Relevant materials: Maximum individual impurity (%) [3, 13]: 0.032%
Relevant materials: Total impurity (%) [3, 13]: 0.085%
Appearance character [3, 14]: Off-white
Relevant materials: Maximum individual impurity (%) [3, 15]: 0.030%
Relevant materials: Total impurity (%) [3, 15]: 0.093%
Appearance character [3, 16]: Off-white
Relevant materials: Maximum individual impurity (%) [3, 17]: 0.028%
Relevant materials: Total impurity (%) [3, 17]: 0.117%
Appearance character [3, 18]: Off-white
Relevant materials: Maximum individual impurity (%) [3, 19]: 0.024%
Relevant materials: Total impurity (%) [3, 19]: 0.136%
Appearance character [3, 20]: Off-white
Relevant materials: Maximum individual impurity (%) [3, 21]: 0.032%
Relevant materials: Total impurity (%) [3, 21]: 0.085%
Appearance character [3, 22]: Off-white
Relevant materials: Maximum individual impurity (%) [3, 23]: 0.088%
Relevant materials: Total impurity (%) [3, 23]: 0.112%
Appearance character [3, 24]: Off-white
Relevant materials: Maximum individual impurity (%) [3, 25]: 0.094%
Relevant materials: Total impurity (%) [3, 25]: 0.245%
Appearance character [3, 26]: Off-white
Relevant materials: Maximum individual impurity (%) [3, 27]: 0.113%
Relevant materials: Total impurity (%) [3, 27]: 0.344%
Stability compared with crystal form A ([3]; high temperature and high humidity): better than that of crystal form A
Stability compared with crystal form A ([3]; light exposure): comparable to that of crystal form A
Stability of the crystal form in suspension equilibrium [6]: better stability than amorphous form and crystal form A
Hygroscopic moisture (%) ([1]; 0 h): 0.11%
Hygroscopic moisture (%) ([1]; 24 h): 0.15%
Hygroscopic moisture (%) ([1]; 48 h): 0.18%
